Key:
[1] = pH of dissolution vessel with calcium carbonate antacid tablets in HCl; assay type: physicochemical; details: in 10 minutes (FIG. 1)
Description: Two dissolution vessels were prepared: one vessel contained 25 mEq of HCl and a single commercially available calcium carbonate antacid tablet (Tums®), and the other vessel contained 25 mEq of HCl and five calcium carbonate antacid tablets. […] Calcium carbonate has shown a capability as a pH modifier and pH dependent solubility.

[2] = earlier experimentation
Description: Thus, sodium bicarbonate was added to a prototype formulation primarily to control rapid pH elevation and calcium carbonate for a more sustained control of elevated pH.

Compound | pH change seen for calcium carbonate [1] | time to raise acid media from pH 1 to pH 6 [2]
O=C([O-])[O-].[Ca+2] [calcium carbonate] | 5 | –
O=C([O-])O.[Na+] [sodium bicarbonate] | – | less than 2 minutes

Source: US10441657B2, “Methods and compositions for self-regulated release of active pharmaceutical ingredient” (Acura Pharmaceuticals, Inc., priority 2012, dated 2019)
